Assay results published in patent publication US20250154202A1, “CYCLIC EPITOPE TAGS” (BIONTECH SE, priority 2022, published 2025).
Bridge positions count the residues as written; N and C are the ends. Peptide text beside a SMILES is read from it.

Experiments:
anti-ALFA VHH = test: binding affinity to the anti-ALFA VHH (log(agonist) vs. response, variable slope); conditions: for LogEC50: best-fit values, log(agonist) vs. response, variable slope; for EC50: binding to anti-ALFA VHH
NbALFA = test: SPR measurements of NbALFA binding (Biacore T200, multi cycle kinetics, 1:1 binding model); conditions: for Kd / ka / kd: 25° C., HBS-EP+ buffer, biotinylated NbALFA captured
Description: Affinity measurements were performed using a Biacore T200 (GE Healthcare, Biacore T200 control Software 3.2). […] A freshly docked Biotin CAPture chip was rehydrated overnight in the instrument (standby mode). […] The immobilization of the Nanobody was done for 180 s at 10 μL/min on FC2 followed by quenching of unbound streptavidin by 0.1 mM biocytin for 60 s and 30 μL/min on both flow cells. […] After each cycle, the surface was regenerated for 120 s with 10 μL/min using regeneration solution. All measurements were performed at 25° C. using HBS-EP+ buffer (Cytiva Europe, Cat. no BR100669). The control responses from FC1 were subtracted by the sample measurement in FC2 (FC2−FC1) followed by subtraction of the 0 nM blank injection. Resulting binding curves of this multi cycle kinetic experiment were fitted using the Biacore T200 Evaluation Software 3.2 and a 1:1 binding model.

[1] = Plasma stability, human plasma; conditions: for Conc. (% of T0) / Mean (compound concentration) / Tube 2 (compound concentration) / Tube 3 (compound concentration) / Tube 1 (compound concentration) / half-life: human plasma, 37° C.; for remaining at 2 h, 10 µM / remaining at 6 h, 10 µM: human Li-heparin plasma; for half-life: plasma
[2] = Plasma stability, mouse plasma; conditions: for remaining at 2 h, 10 µM / remaining at 6 h, 10 µM / remaining at 24 h, 10 µM: Balb C, Li-heparin plasma; for remaining at 2 h, 10 µM / remaining at 6 h, 10 µM / remaining at 24 h, 10 µM / half-life: mouse; for Conc. (% of T0) / Mean (compound concentration) / Tube 2 (compound concentration) / Tube 3 (compound concentration) / Tube 1 (compound concentration) / half-life: mouse plasma, 37° C.; for half-life: plasma, incubation 24 h (triplicates) or 6 h (duplicates)
[3] = Pharmacokinetic study in mouse, intravenous bolus, plasma LC-MS/MS, non-compartmental analysis; conditions: for AUC(0-inf): AUC0-inf; for AUC(0-t): AUC0-t
Description: C57BL/6NRj mice were obtained from Janvier Labs, France. In this study, approximately 8-week-old female mice were used.
Prior to administration into the lateral tail vein, the body weight of the animals was determined to calculate the individual volume of the injecting compound (5 mL/kg body weight). The injection, as well as the blood sampling, were carried out under short anesthesia (0.7 L/min O2, 1.7 L/min N2O, 2% Isoflurane). Blood was sampled from the retro-orbital plexus using microhematocrit capillary (Ø 0.8 mm) and collected into K3EDTA tubes, at the time points indicated in Table 10.
The plasma was separated by centrifugation (10,000×g; 10 min; 4° C.), aliquoted into microtubes and stored at −80° C.
20 μl of each plasma sample was transferred into PCR tubes. 80 μl IS (internal standard)-solution in acetonitrile+1% FA was added for protein precipitation.
The sample tubes were sealed with pierceable cap mats and vortexed. After homogenization for 5 min in an ultrasonic bath the samples were centrifuged at 3000 rpm at ambient temperature for 15 min. 1 μl supernatant was injected into the instrument for LC-MS/MS analysis. For LC-MS/MS quantification a ExionLC™ UHPLC coupled to a QTRAP® 6500+ mass spectrometer (Sciex) was used in ESI positive mode. Parameters for mass spectrometry were listed in the tables below, Chromatographic separation was achieved on a ACQUITY UPLC BEH C18 column (Waters, 1.7 μm, 2.1×50 mm).
Compound concentrations in plasma samples were calculated using a 10-point calibration curve in plasma over a concentration range of 1 to 1000 ng/ml. QC samples of 1, 10, 100, 1000 ng/ml were analyzed before and after each dose group. Samples exceeding the upper limit of quantification (1000 ng/ml) were re-analyzed after 10-fold dilution in blank plasma. All calculations were performed in Sciex OS Version 1.7.0.36606 and MS-EXCEL®.
Pharmacokinetic parameters were calculated for both compounds using the software Kinetica (version 4.4.1, Thermo Scientific) applying a non-compartmental model (NCA).

[4] = timepoint 0 h, calibration range 0.1 to 10 μM
[5] = human, Half-life time, incubation 24 h (triplicates) or 6 h (duplicates)
[6] = in vivo, iv, 3 mg/kg, single i.v.
[7] = in vivo, iv, normalized to a dose of 1 mg/kg, given 3 mg/kg i.v.

CC(=O)N[C@@H](CO)C(=O)N[C@@H](CCCNC(=N)N)C(=O)N[C@@H](CC(C)C)C(=O)N[C@@H](CCC(=O)O)C(=O)N[C@H]1CCC(=O)NCCCC[C@@H](C(=O)N[C@@H](CCCNC(=N)N)C(=O)N[C@@H](CCCNC(=N)N)C(=O)N[C@@H](CC(C)C)C(=O)N[C@H](C(=O)N[C@@H](CCC(=O)O)C(N)=O)[C@@H](C)O)NC(=O)[C@H](CC(C)C)NC(=O)[C@H](CCC(=O)O)NC1=O [SD15192, Ac-Ser-Arg-Leu-Glu-(cyclo5)Glu-Glu-Leu-(cyclo8)Lys-Arg-Arg-Leu-Thr-Glu-NH2] (Ac-SRLEEELKRRLTE-NH2; lactam 5-8)
LogEC50 (anti-ALFA VHH): 0.7765
EC50 (anti-ALFA VHH): 5.98 nM
Kd (NbALFA): 0.0551 nM
ka (NbALFA): 1.05e+07 M⁻¹ s⁻¹
kd (NbALFA): 0.000577 s⁻¹
Conc. (% of T0) ([1]; timepoint 0 h): 100.0 % of T0
Mean (compound concentration) ([1]; timepoint 0 h): 2.56
Tube 2 (compound concentration) ([1]; timepoint 0 h): 2.471
Tube 3 (compound concentration) ([1]; timepoint 0 h): 2.553
Tube 1 (compound concentration) [1, 4]: 2.667
Mean (compound concentration) ([1]; timepoint 2 h): 1.76
Tube 1 (compound concentration) ([1]; timepoint 2 h): 1.788
Tube 2 (compound concentration) ([1]; timepoint 2 h): 1.757
Tube 3 (compound concentration) ([1]; timepoint 2 h): 1.731
Mean (compound concentration) ([1]; timepoint 6 h): 0.88
Tube 1 (compound concentration) ([1]; timepoint 6 h): 0.876
Tube 2 (compound concentration) ([1]; timepoint 6 h): 0.868
Tube 3 (compound concentration) ([1]; timepoint 6 h): 0.883
Tube 1 (compound concentration) ([1]; timepoint 24 h): 0.031
Tube 2 (compound concentration) ([1]; timepoint 24 h): 0.036
Tube 3 (compound concentration) ([1]; timepoint 24 h): 0.046
remaining at 2 h, 10 µM ([1]; human): 68.6%
remaining at 6 h, 10 µM ([1]; human): 34.2%
half-life [1, 5]: 233 min
remaining at 2 h, 10 µM [2]: 85.9%
remaining at 6 h, 10 µM [2]: 65.7%
remaining at 24 h, 10 µM [2]: 23.9%
Conc. (% of T0) ([2]; timepoint 0 h): 100.0 % of T0
Mean (compound concentration) ([2]; timepoint 0 h): 2.70
Tube 2 (compound concentration) ([2]; timepoint 0 h): 2.705
Tube 3 (compound concentration) ([2]; timepoint 0 h): 2.658
Tube 1 (compound concentration) [2, 4]: 2.731
Mean (compound concentration) ([2]; timepoint 2 h): 2.32
Tube 1 (compound concentration) ([2]; timepoint 2 h): 2.366
Tube 2 (compound concentration) ([2]; timepoint 2 h): 2.256
Tube 3 (compound concentration) ([2]; timepoint 2 h): 2.33
Mean (compound concentration) ([2]; timepoint 6 h): 1.77
Tube 1 (compound concentration) ([2]; timepoint 6 h): 1.851
Tube 2 (compound concentration) ([2]; timepoint 6 h): 1.679
Tube 3 (compound concentration) ([2]; timepoint 6 h): 1.791
Mean (compound concentration) ([2]; timepoint 24 h): 0.64
Tube 1 (compound concentration) ([2]; timepoint 24 h): 0.637
Tube 2 (compound concentration) ([2]; timepoint 24 h): 0.656
Tube 3 (compound concentration) ([2]; timepoint 24 h): 0.638
half-life [2]: 707 min

CC(=O)N[C@@H](CO)C(=O)N[C@@H](CCCNC(=N)N)C(=O)N[C@@H](CC(C)C)C(=O)N[C@@H](CCC(=O)O)C(=O)N[C@@H](CCC(=O)O)C(=O)N[C@@H](CCC(=O)O)C(=O)N[C@@H](CC(C)C)C(=O)N[C@@H](CCCNC(=N)N)C(=O)N[C@H]1CCCCNC(=O)CC[C@@H](C(N)=O)NC(=O)[C@H]([C@@H](C)O)NC(=O)[C@H](CC(C)C)NC(=O)[C@H](CCCNC(=N)N)NC1=O [SD15193, Ac-Ser-Arg-Leu-Glu-Glu-Glu-Leu-Arg-(cyclo9)Lys-Arg-Leu-Thr-(cyclo13)Glu-NH2] (Ac-SRLEEELRKRLTE-NH2; lactam 9-13)
LogEC50 (anti-ALFA VHH): 0.7818
EC50 (anti-ALFA VHH): 6.05 nM
Kd (NbALFA): 0.0556 nM
ka (NbALFA): 1.95e+07 M⁻¹ s⁻¹
kd (NbALFA): 0.00109 s⁻¹
Conc. (% of T0) ([1]; timepoint 0 h): 100.0 % of T0
Mean (compound concentration) ([1]; timepoint 0 h): 2.81
Tube 2 (compound concentration) ([1]; timepoint 0 h): 2.845
Tube 3 (compound concentration) ([1]; timepoint 0 h): 2.795
Tube 1 (compound concentration) [1, 4]: 2.799
Mean (compound concentration) ([1]; timepoint 2 h): 2.71
Tube 1 (compound concentration) ([1]; timepoint 2 h): 2.769
Tube 2 (compound concentration) ([1]; timepoint 2 h): 2.647
Tube 3 (compound concentration) ([1]; timepoint 2 h): 2.717
Mean (compound concentration) ([1]; timepoint 6 h): 2.66
Tube 1 (compound concentration) ([1]; timepoint 6 h): 2.774
Tube 2 (compound concentration) ([1]; timepoint 6 h): 2.678
Tube 3 (compound concentration) ([1]; timepoint 6 h): 2.527
Mean (compound concentration) ([1]; timepoint 24 h): 2.09
Tube 1 (compound concentration) ([1]; timepoint 24 h): 2.387
Tube 2 (compound concentration) ([1]; timepoint 24 h): 1.983
Tube 3 (compound concentration) ([1]; timepoint 24 h): 1.888
remaining at 24 h, 10 µM ([1]; human, Li-heparin plasma): 74.2%
remaining at 2 h, 10 µM ([1]; human): 96.4%
remaining at 6 h, 10 µM ([1]; human): 94.5%
half-life ([1]; human, Flag (half-life, assay exceeded)): > 1440 min
half-life [1, 5]: 3360 min
remaining at 2 h, 10 µM [2]: 87.5%
remaining at 6 h, 10 µM [2]: 72.7%
remaining at 24 h, 10 µM [2]: 39.4%
Conc. (% of T0) ([2]; timepoint 0 h): 100.0 % of T0
Mean (compound concentration) ([2]; timepoint 0 h): 3.29
Tube 2 (compound concentration) ([2]; timepoint 0 h): 3.236
Tube 3 (compound concentration) ([2]; timepoint 0 h): 3.311
Tube 1 (compound concentration) [2, 4]: 3.315
Mean (compound concentration) ([2]; timepoint 2 h): 2.88
Tube 1 (compound concentration) ([2]; timepoint 2 h): 2.864
Tube 2 (compound concentration) ([2]; timepoint 2 h): 2.972
Tube 3 (compound concentration) ([2]; timepoint 2 h): 2.789
Mean (compound concentration) ([2]; timepoint 6 h): 2.39
Tube 1 (compound concentration) ([2]; timepoint 6 h): 2.383
Tube 2 (compound concentration) ([2]; timepoint 6 h): 2.443
Tube 3 (compound concentration) ([2]; timepoint 6 h): 2.346
Mean (compound concentration) ([2]; timepoint 24 h): 1.30
Tube 1 (compound concentration) ([2]; timepoint 24 h): 1.253
Tube 2 (compound concentration) ([2]; timepoint 24 h): 1.397
Tube 3 (compound concentration) ([2]; timepoint 24 h): 1.236
half-life [2]: 1110 min

CC(=O)N1CCC[C@H]1C(=O)N[C@@H](CO)C(=O)N[C@@H](CCCNC(=N)N)C(=O)N[C@@H](CC(C)C)C(=O)N[C@@H](CCC(=O)O)C(=O)N[C@H]1CCC(=O)NCCCC[C@@H](C(=O)N[C@@H](CCCNC(=N)N)C(=O)N[C@@H](CC(C)C)C(=O)N[C@H](C(=O)N[C@@H](CCC(=O)O)C(N)=O)[C@@H](C)O)NC(=O)[C@H](CCCNC(=N)N)NC(=O)[C@H](CC(C)C)NC(=O)[C@H](CCC(=O)O)NC1=O [SD15341, Ac-Pro-Ser-Arg-Leu-Glu-(cyclo6)Glu-Glu-Leu-Arg-(cyclo10)Lys-Arg-Leu-Thr-Glu-NH2] (Ac-PSRLEEELRKRLTE-NH2; lactam 6-10)
Kd (NbALFA): 0.0194 nM
ka (NbALFA): 1.86e+07 M⁻¹ s⁻¹
kd (NbALFA): 0.000361 s⁻¹
binding with respect to NbALFA (NbALFA; in words): very good binding
half-life ([3]; female, C57BL/6NRj, plasma, iv, 3 mg/kg): 6.69 min
area under the curve (AUC) compared to the linear alpha compound ([3]; i.v., in words): much higher
clearance compared to the linear alpha compound ([3]; i.v., in words): drastically reduced
MRT inf ([3]; in vivo, iv, 3 mg/kg): 4.5 min
MRT last ([3]; in vivo, iv, 3 mg/kg): 4.47 min
Tmax ([3]; in vivo, iv, 3 mg/kg): 1 min
clearance ([3]; in vivo, iv, 3 mg/kg): 52.8 mL/min/kg
AUC(0-inf) [3, 6]: 948 ng·h/mL
AUC(0-t) [3, 6]: 947 ng·h/mL
C0 ([3]; in vivo, iv, 3 mg/kg, C0, single i.v.): 15400 ng/mL
Cmax [3, 6]: 12700 ng/mL
Vd ([3]; in vivo, iv, 3 mg/kg, Vss, single i.v., 3 mg/kg): 0.237 L/kg
Vd ([3]; in vivo, iv, 3 mg/kg, Vz, single i.v.): 0.509 L/kg
AUC(0-inf) [3, 7]: 316 ng·h/mL
AUC(0-t) [3, 7]: 316 ng·h/mL
C0 ([3]; in vivo, iv, C0, normalized to a dose of 1 mg/kg, given 3 mg/kg i.v.): 5130 ng/mL
Cmax [3, 7]: 4240 ng/mL
AUCextra ([3]; single i.v., 3 mg/kg): 0.05%
Vc ([3]; single i.v., 3 mg/kg): 195 mL/kg
t1/2effective ([3]; single i.v., 3 mg/kg): 3.10 min
t1/2initial ([3]; single i.v., 3 mg/kg): 2.41 min
λinitial ([3]; single i.v., 3 mg/kg): 0.29 min⁻¹
λterminal ([3]; single i.v., 3 mg/kg): 0.10 min⁻¹

Ac-SRLEEELRRRLTE-NH2 [SD15197, Ac-Ser-Arg-Leu-Glu-Glu-Glu-Leu-Arg-Arg-Arg-Leu-Thr-Glu-NH2, reference compound]
LogEC50 (anti-ALFA VHH): 0.4145
EC50 (anti-ALFA VHH): 2.6 nM
EC50 (anti-ALFA VHH; listed as parent linear ALFA peptide): 2.6 nM
Kd (NbALFA): 0.0117 nM
ka (NbALFA): 5.05e+07 M⁻¹ s⁻¹
kd (NbALFA): 0.000593 s⁻¹
